From ChEMBL document CHEMBL5046240, “Design, synthesis, and evaluation of potent RIPK1 inhibitors with in vivo anti-inflammatory activity” (Eur J Med Chem, 2022)

Tests used:
[1] = Half life in Sprague-Dawley rat at 10 mg/kg , po measured upto 24 hrs by LC-MS/MS analysis; format: ADME, organism-based; conditions: in vivo
[2] = Protein binding in human plasma by LC-MS/MS based equilibrium dialysis method; format: ADME, cell-free; conditions: read-out: PPB (converted)
[3] = Permeability across apical to basolateral side in human Caco-2 cells at pH 7.4 by LC-MS/MS analysis; format: ADME, cell-based; conditions: Caco-2, pH 7.4, read-out: permeability
[4] = Tmax in Sprague-Dawley rat at 10 mg/kg, po measured upto 24 hrs by LC-MS/MS analysis; format: ADME, organism-based; conditions: in vivo
CYP2C9 = CYP2C9 (Homo sapiens, UniProt P11712); experiment: Inhibition of CYP2C9 (unknown origin) using tolbutamide as cocktail probe substrate at 10 uM preincubated for 20 mins followed by substrate addition and measured after 20 mins by LC-MS/MS analysis relative to control; format: ADME; conditions: time 40 min
CYP1A2 = molecular target: T1, CYP1A2 (Homo sapiens, UniProt P05177); experiment: Inhibition of CYP1A2 (unknown origin) using Phenacetin as cocktail probe substrate at 10 uM preincubated for 20 mins followed by substrate addition and measured after 20 mins by LC-MS/MS analysis relative to control; format: ADME; conditions: time 40 min
T1 sequence (P05177 whole entry): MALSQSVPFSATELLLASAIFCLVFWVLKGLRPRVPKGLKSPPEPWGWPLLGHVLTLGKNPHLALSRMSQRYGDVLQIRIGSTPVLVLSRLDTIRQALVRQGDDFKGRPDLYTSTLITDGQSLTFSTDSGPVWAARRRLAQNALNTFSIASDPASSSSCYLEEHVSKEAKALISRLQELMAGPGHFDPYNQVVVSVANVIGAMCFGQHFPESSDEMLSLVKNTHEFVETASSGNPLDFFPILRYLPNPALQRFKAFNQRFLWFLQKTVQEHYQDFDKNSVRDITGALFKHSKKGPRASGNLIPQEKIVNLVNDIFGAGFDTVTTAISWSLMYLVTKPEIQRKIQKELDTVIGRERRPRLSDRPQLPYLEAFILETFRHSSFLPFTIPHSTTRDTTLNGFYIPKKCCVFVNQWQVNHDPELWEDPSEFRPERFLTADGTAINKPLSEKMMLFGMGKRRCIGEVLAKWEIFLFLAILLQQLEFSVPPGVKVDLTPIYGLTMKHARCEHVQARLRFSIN

[5] = Protein binding in rat plasma by LC-MS/MS based equilibrium dialysis method; format: ADME, cell-free; conditions: read-out: PPB (converted)
[6] = Toxicity in C57BL/6J mouse assessed as effect on liver morphological changes at 5 to 25 mg/kg, po administered daily for 7 days by H and E staining method; format: organism-based; conditions: in vivo, 168 h, dose 5-25 mg/kg, time 7 day
[7] = Toxicity in C57BL/6J mouse assessed as effect on lung morphological changes at 5 to 25 mg/kg, po administered daily for 7 days by H and E staining method; format: organism-based; conditions: in vivo, 168 h, dose 5-25 mg/kg, time 7 day
[8] = Metabolic stability in rat liver microsomes assessed as intrinsic clearance by LC-MS/MS analysis; format: ADME, Microsome; conditions: read-out: CLH
[9] = Metabolic stability in human liver microsomes assessed as intrinsic clearance by LC-MS/MS analysis; format: ADME, Microsome; conditions: read-out: CLH
CYP2C19 = CYP2C19 (Homo sapiens, UniProt P33261); experiment: Inhibition of CYP2C19 (unknown origin) using cocktail of probe as substrate at 10 uM preincubated for 20 mins followed by substrate addition and measured after 20 mins by LC-MS/MS analysis relative to control; format: ADME; conditions: time 40 min
Sequence of CYP2C19 (P33261 whole entry): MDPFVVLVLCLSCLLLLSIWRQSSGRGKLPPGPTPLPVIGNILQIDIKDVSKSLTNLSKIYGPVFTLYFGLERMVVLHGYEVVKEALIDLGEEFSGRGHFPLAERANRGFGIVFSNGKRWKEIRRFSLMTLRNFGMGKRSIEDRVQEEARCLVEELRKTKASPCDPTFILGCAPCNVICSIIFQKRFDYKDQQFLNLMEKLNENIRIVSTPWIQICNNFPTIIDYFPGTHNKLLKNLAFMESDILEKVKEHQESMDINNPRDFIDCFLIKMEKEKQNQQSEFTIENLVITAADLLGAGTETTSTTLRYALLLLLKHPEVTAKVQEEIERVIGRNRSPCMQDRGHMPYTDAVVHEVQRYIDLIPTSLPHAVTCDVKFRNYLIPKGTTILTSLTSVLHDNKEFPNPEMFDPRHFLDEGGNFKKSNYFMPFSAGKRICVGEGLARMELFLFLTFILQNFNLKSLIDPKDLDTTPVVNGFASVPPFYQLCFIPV

Sequence of CYP2C9 (P11712 whole entry): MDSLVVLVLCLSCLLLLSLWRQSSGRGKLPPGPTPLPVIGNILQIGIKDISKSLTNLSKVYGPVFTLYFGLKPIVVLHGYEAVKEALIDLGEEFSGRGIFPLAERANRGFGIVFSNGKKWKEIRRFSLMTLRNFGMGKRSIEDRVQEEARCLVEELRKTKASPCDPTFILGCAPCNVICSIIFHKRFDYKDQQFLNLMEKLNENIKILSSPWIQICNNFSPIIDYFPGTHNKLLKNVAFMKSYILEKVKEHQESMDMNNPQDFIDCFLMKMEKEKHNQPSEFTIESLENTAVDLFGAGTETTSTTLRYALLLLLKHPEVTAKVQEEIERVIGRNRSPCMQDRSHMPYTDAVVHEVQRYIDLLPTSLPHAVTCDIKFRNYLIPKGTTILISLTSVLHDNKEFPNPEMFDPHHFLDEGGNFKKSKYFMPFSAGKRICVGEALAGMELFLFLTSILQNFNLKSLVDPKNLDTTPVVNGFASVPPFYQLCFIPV

- half-life [1]: 1.7 h
- fraction unbound [2]: 0.016
- Papp A→B [3]: 33 ×10⁻⁶ cm/s
- Tmax [4]: 1.2 h
- inhibition at 20 min, 10 µM (CYP2C9): 62%
- inhibition at 20 min, 10 µM (CYP1A2): 16%
- fraction unbound [5]: 0.018
- CLint scaled [8]: 159 mL/min/kg
- CLint scaled [9]: 49 mL/min/kg
- inhibition at 20 min, 10 µM (CYP2C19): 41%
SMILES: Cc1ncc(-c2ccc3nc(NC(=O)C4CC4)sc3c2)cc1NC(=O)OC1CCOCC1
- Activity [6]: Non-Toxic
- Activity [7]: Non-Toxic
